Measured values from patent US12458643B2, “Antidepressant/anxiolytic drug in which PAC1 receptor antagonist is used” (KAGOSHIMA UNIVERSITY, priority 2020, dated 2025).

Assays:
[1] = system: normal mice; assay: Light-dark test in normal mice; assay type: in vivo, mouse; settings: normal male C57BL/6J mice, 30 mg/kg i.p., 60 min after administration, 10 min test
Description: The effects of PA-8 and PA-81004 on normal mice were evaluated by a light-dark test (test to measure spontaneous locomotion by exploiting the properties of mice to avoid light environments, and placing the mice in a light box and a dark box joined together (each 20 cm×20 cm, height: 30 cm); in this test, anxiety-like behavior is evaluated by measuring times spent in the light box and the dark box and the number of transitions between the light box and the dark box).
(§1) Male C57BL/6J mice (8 to 12 weeks old) were acclimatized to a laboratory for 60 minutes. Then, a vehicle (10% DMSO solution; dissolved in saline; n=13), PA-8 (30 mg/kg; n=12) or PA-81004 (30 mg/kg; n=12) was intraperitoneally administered thereto (0.1 mL/10 g). After a lapse of 60 minutes after administration, the test was conducted for 10 minutes. The results are shown in FIG. 2 (A: time spent in the light box, B: the number of transitions between the light and dark boxes; light box illuminance: 330 lx).
The effects of PA-9 and PA-915 on normal mice were evaluated by the light-dark test.
as §1, with “laboratory (illuminance: 330 lx)” for “laboratory”, “saline; n=12), PA-9” for “saline; n=13), PA-8”, “mg/kg; n=10)” for “mg/kg; n=12)”, “or PA-915” for “or PA-81004”, “FIG. 6” for “FIG. 2”

[2] = system: chronic social defeat stress mice; assay: Chronic social defeat stress, sucrose preference test; assay type: in vivo, mouse; settings: for sustained effect on reduced sucrose preference: 8, 15, 29, 57 days after single i.p. dose (PA-915 30 mg/kg, ketamine 20 mg/kg), fluoxetine: after withdrawal of 14-day administration
Description: In a sucrose preference test, mice are exposed to a sucrose solution and regular water contained in bottles at the same time. Normal mice prefer to drink the sweet sucrose solution, whereas depressed mice drink the sucrose solution at a decreased ratio.
(§2) Chronic social defeat stress was applied at 10 min/day for 10 days (Days 1 to 10) to male C57BL/6N mice (8 to 12 weeks old) each reared in isolation for 10 days or longer. On Day 11, SPAT was conducted, and susceptible mice were selected. A vehicle (10% DMSO solution; dissolved in saline; n=11) or PA-8 (30 mg/kg; n=9) was intraperitoneally administered once daily (0.1 mL/10 g) for 7 consecutive days from day 12. The sucrose preference test was conducted (a sucrose preference ratio was studied for 17 hours) 30 minutes after the final administration on the 7th day (Day 18). Mice reared for 10 days in a home cage without chronic social defeat stress load were used as a control (n=10). The data was indicated by mean±standard error. *P<0.05 (One-way ANOVA followed by Tukey-Kramer test).
as §2, with “PA-9” for “PA-8”, “n=9 or 8)” for “n=9)”, “after administration on” for “after”, “first day (Day 12) and” for “final administration”, “18). […]” for “18).”
Chronic social defeat stress was applied at 10 min/day for 10 days (Days 1 to 10) to male C57BL/6N mice (8 to 12 weeks old) each reared in isolation for 10 days or longer. On Day 11, SPAT was conducted, and susceptible mice were selected. On the next day (Day 12), a vehicle (10% DMSO solution; dissolved in saline; n=11) or PA-915 (30 mg/kg; n=10) was intraperitoneally administered (0.1 mL/10 g) to the mice. The sucrose preference test was conducted (a sucrose preference ratio was studied for 17 hours) from 30 minutes after administration. Mice reared for 10 days in a home cage without chronic social defeat stress load were used as a control (n=15). The data was indicated by mean±standard error. *P<0.05 (One-way ANOVA followed by Tukey-Kramer test).
Chronic social defeat stress was applied at 10 min/day for 10 days (Days 1 to 10) to male C57BL/6N mice (8 to 12 weeks old) each reared in isolation for 10 days or longer. On Day 11, the social preference or avoidance test (SPAT) was conducted, and susceptible mice were selected. On the next day (Day 12), a vehicle (V: 10% DMSO solution; dissolved in saline; n=17), PA-915 (P: 30 mg/kg; n=15), ketamine (K: 20 mg/kg; n=15) or fluoxetine (F: 20 mg/kg; n=16, n=15 only on Day 69) was intraperitoneally administered (0.1 mL/10 g) to the mice. The sucrose preference test was conducted 24 hours later (Day 13), 8 days later (Day 20), 15 days later (Day 27), 29 days later (Day 41), and 57 days later (Day 69) (a sucrose preference ratio was studied on each day from 5:00 p.m. of the previous day to 10:00 a.m. of the day). However, for the fluoxetine administration group, consecutive administration (F: 20 mg/kg, intraperitoneal administration (0.1 mL/10 g)) was performed for 14 days from Day 12 to Day 26. Mice reared for 10 days in a home cage without chronic social defeat stress load were used as a control (n=22). The data was indicated by mean±standard error. **P<0.01; *P<0.05 (One-way ANOVA followed by Tukey-Kramer test). […]

[3] = chronic social defeat stress, 30 mg/kg i.p. once daily for 7 days, test 30 min after final administration (Day 18)
[4] = Example 19, single i.p. dose (PA-915 30 mg/kg, ketamine 20 mg/kg, fluoxetine 20 mg/kg), 24 hours later (Day 13)

SMILES: Nc1nc2c(c(=O)[nH]1)C(c1cccc(OC(F)(F)F)c1)CC(=O)N2 (centres unmarked) [PA-81004, 2-Amino-5-(3-trifluoromethoxyphenyl)-5,8-dihydro-3H,6H-pyrido[2,3-d]pyrimidine-4,7-dione]
- pharmacological action in light-dark test (time in light box, transitions) [1]: no pharmacological action

SMILES: C=CCOc1ccc(C2CC(=O)Nc3nc(N)[nH]c(=O)c32)cc1OC (centres unmarked) [PA-8]
- pharmacological action in light-dark test (time in light box, transitions) [1]: no pharmacological action
- effect on reduced sucrose preference [2, 3]: improving effect

SMILES: CNC1(c2ccccc2Cl)CCCCC1=O (centres unmarked) [ketamine]
- sustained effect on reduced sucrose preference ([2]; Example 19): maintained its effectiveness 8, 15, 29, and 57 days later
- effect on reduced sucrose preference [2, 4]: improved reduced sucrose preference in a fast-acting manner

SMILES: CNCCC(Oc1ccc(C(F)(F)F)cc1)c1ccccc1 (centres unmarked) [fluoxetine]
- sustained effect on reduced sucrose preference ([2]; Example 19): its effectiveness was not maintained after drug withdrawal
- effect on reduced sucrose preference ([2]; Example 19, fluoxetine 20 mg/kg i.p. 14-day consecutive administration (Day 12 to Day 26)): improved reduced sucrose preference
- effect on reduced sucrose preference [2, 4]: did not improve sucrose preference

SMILES: O=C(NCCc1c[nH]cn1)C1CC(=O)N(c2n[nH]c3ccccc23)C1 (centres unmarked) [PA-9]
- pharmacological action in light-dark test (time in light box, transitions) [1]: no pharmacological action
- effect on reduced sucrose preference [2, 3]: its effect was also sustained after repeated administration for 7 days
- effect on reduced sucrose preference ([2]; chronic social defeat stress, 30 mg/kg i.p. single dose (Day 12), test from 30 min after administration, 17 hours): improved sucrose preference even by single-dose administration
